# Measurements published in patent US5703085A, “Xanthine derivatives” (Kyowa Hakko Kogyo Co., Ltd., priority 1994, dated 1997).
# Where two headings read alike, the source gives them in different places.
# Tests used:
# A2 Receptor = target: T1, A2 Receptor (Rattus norvegicus, UniProt P30543); assay: Adenosine A2 receptor binding test (inhibition of 3H-CGS 21680 binding); conditions: rat corpus striatum, 3H-CGS 21680 4.0 nM
# T1 construct: from tissue; host or cells: rat corpus striatum (membrane suspension)
# Protocol: Adenosine Receptor Antagonistic Activity (Adenosine A2 Receptor Binding Test)
# The test was conducted according to the method of Bruns et al. [Mol. Pharmacol., 29, 331 (1986)] with slight modification.
# Corpus striatum of a rat was suspended in ice-cooled 50 mM Tris (hydroxymethyl) aminomethane hydrochloride (Tris HCl) buffer (pH 7.7) by using Polytron homogenizer (manufactured by Kinematica Co.). The suspension was centrifuged (50,000×g, 10 minutes), and the precipitate was suspended again in the same amount of 50 mM Tris HCl buffer. The suspension was centrifuged under the same conditions, and the final precipitate was suspended in 50 mM Tris HCl buffer [containing 10 mM magnesium chloride and 0.02 unit/mg tissue of adenosine deaminase (manufactured by Sigma Co.)] to give a tissue concentration of 5 mg (wet weight)/ml.
# To 1 ml of the tissue suspension thus prepared were added 50 μl of tritium labeled CGS 21680 {^3 H-2-[p-(2-carboxyethyl) phenethylamino]-5'-(N-ethylcarboxamide)-adenosine: 40 Ci/mmol; manufactured by New England Nuclear Co. [J. Pharmacol. Exp. Ther., 251, 888 (1989)]} (final concentration: 4.0 nM) and 50 μl of a test compound. The resulting mixture was allowed to stand at 25° C. for 120 minutes and then rapidly filtered by suction through a glass fiber filter (GF/C; manufactured by Whatman Co.). The filter was immediately washed three times with 5 ml each of ice-cooled 50 mM Tris HCl buffer, and transferred to a vial, and a scintillator (EX-H; manufactured by Wako Pure Chemical Industries, Ltd.) was added thereto. The radioactivity on the filter was determined with a liquid scintillation counter (manufactured by Packard Instrument Co.).
# The inhibition rate of the test compound against the binding of A2 receptors (^3 H-CGS 21680 binding) was calculated by the following equation: [formula] [Notes]B: Amount of the binding in the presence of the test compound.
# T: Amount of the total binding.
# N: Amount of the nonspecific binding.
# Amount of the total binding means the amount of radioactivity of ^3 H-CGS 21680 bound in the absence of the test compound. Amount of the nonspecific binding means the amount of radioactivity of ^3 H-CGS 21680 bound in the presence of 100 μM cyclopentyladenosine (CPA; manufactured by Sigma Co.). Amount of the binding in the presence of the test compound means the amount of radioactivity of ^3 H-CGS 21680 bound in the presence of the test compound at various levels of concentrations.
# [1] = Effect on haloperidol-induced catalepsy; type: in vivo, male ddY mice; conditions: 10 mg/kg po; for Total Score (catalepsy): 1 h after compound; for inhibition in vivo at 10 mg/kg: Mus musculus, 1 h, decrease in total score vs control group, read-out: Remission Rate (%)
# Protocol: Effect on Haloperidol-Induced Catalepsy
# Parkinson's disease is a clinical syndrome caused by degeneration and cell death of nigrostriatal dopaminergic neurons. Administration of haloperidol (dopamine D1 /D2 antagonist) induces catalepsy resulting from the blockade of postsynaptic dopamine D2 receptors.
# The experiment was carried out using several groups of 5-week-old male ddY mice (weighing 22 to 24 g, Japan SLC), each group consisting of 5 or 10 mice. Haloperidol (manufactured by Janssen Pharmaceutica) was suspended in 0.3% CMC and imtraperitoneally administered to each mouse at a dose of 1.0 mg/kg. A test compound was suspended in injectable distilled water (manufactured by Otsuka Pharmaceutical Co., Ltd.) after adding Tween 80 [polyoxyethylene (20) sorbitan monooleate]. L-DOPA (manufactured by Kyowa Hakko Kogyo Co., Ltd.) and benserazide hydrochloride (manufactured by Kyowa Hakko Kogyo Co., Ltd.) were suspended in 0.3% CMC. One hour after the intraperitoneal administration of haloperidol, the suspension containing the test compound or the suspension containing no test compound [injectable distilled water (manufactured by Otsuka Pharmaceutical Co., Ltd.) containing Tween 80; control] were orally administered to the separate groups of the mice (0.1 ml per 10 g of body weight). One hour after the administration of the test compound, the forelimbs of each mouse and subsequently the hindlimbs of the same mouse were placed on a 4.5 cm-high, 1.0 cm-wide bar and catalepsy was estimated. All of the test compounds were orally administered at a dose of 10 mg/kg, and L-DOPA (100 mg/kg) and benserazide (25 mg/kg) were intraperitoneally administered together as a control. The catalepsy score and the standard of judgment are shown below. […]
# Score Duration of the category
# 0: forelimbs less than 5 seconds
# hindlimbs less than 5 seconds
# 1: forelimbs from 5 (inclusive)
# to 10 (exclusive) seconds
# 2: forelimbs 10 seconds or more
# 3: (1) forelimbs from 5 (inclusive)
# hindlimbs from 5 (inclusive)
# or (2) forelimbs less than 5 seconds
# hindlimbs 5 seconds or more
# 4: (1) forelimbs 10 seconds or more
# or (2) forelimbs from 5 (inclusive)
# hindlimbs 10 seconds or more
# 5: forelimbs 10 seconds or more
# The effect of the compounds was evaluated by the total of the catalepsy scores of 5 or 10 mice in each group (25 or 50 points at the maximum). The groups wherein the total score was not more than 20 or 40 points were estimated to be effective. The number of the animals showing remission against catalepsy is the number of the mice for which the catalepsy score was not more than 4 points in 5 or 10 mice.
# [2] = Effect on clonidine-induced aggressive behavior; type: in vivo, male ddY mice; conditions: po, clonidine 20 mg/kg ip; for Number of the Biting Attacks (mean ± S.E.M.), Test Compound-Treated Group: 30 min count
# Protocol: Effect on Clonidine-Induced Aggressive Behavior
# The enhancement effect of the test compounds on the aggressive behavior induced by intraperitoneal administration of clonidine [Eur. J. Pharmacol., 29, 374 (1968)] was investigated.
# The experiment was performed using several groups of male ddY mice weighing 20 to 25 g (Japan SLC), each group consisting of two mice. A test compound was suspended in injectable distilled water (manufactured by Otsuka Pharmaceutical Co., Ltd.) after adding Tween 80. Clonidine hydrochloride (manufactured by Sigma Co.) was dissolved in physiological saline solution (manufactured by Otsuka Pharmaceutical Co., Ltd.). The suspension containing the test compound and the suspension containing no test compound (control) were orally administered to the separate groups of the mice (0.1 ml per 10 g of body weight). Sixty minutes after the oral administration of the test compound, clonidine hydrochloride (20 mg/kg) was intraperitoneally administered. The number of biting attacks during the 30 minutes immediately after the clonidine treatment was counted. The effect of the compounds was evaluated by comparing the number of biting attacks of the test compound-administered groups with that of control groups (significance test: Student' t-test).
# [3] = 5 mice (max 25 points; control 25)
# [4] = out of 5 mice (score not more than 4)
# [5] = out of 10 mice (score not more than 4)
# T1 sequence (P30543 whole entry): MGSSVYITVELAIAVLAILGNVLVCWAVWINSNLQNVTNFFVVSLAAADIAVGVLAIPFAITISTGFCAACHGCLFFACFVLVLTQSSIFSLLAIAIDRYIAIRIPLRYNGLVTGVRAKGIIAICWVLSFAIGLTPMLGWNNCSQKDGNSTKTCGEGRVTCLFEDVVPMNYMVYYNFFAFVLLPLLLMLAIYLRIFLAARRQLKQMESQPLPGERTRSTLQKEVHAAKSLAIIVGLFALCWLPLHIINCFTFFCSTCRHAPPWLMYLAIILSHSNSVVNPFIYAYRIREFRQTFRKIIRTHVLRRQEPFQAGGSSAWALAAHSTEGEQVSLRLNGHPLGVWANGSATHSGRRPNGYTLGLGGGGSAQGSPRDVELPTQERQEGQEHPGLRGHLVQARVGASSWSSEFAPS
smiles,measurement,setting,value
"CCn1c(=O)c2c(nc(/C=C/c3ccc(OC(C)=O)c(OC)c3)n2C)n(CC)c1=O [Compound 5, (E)-8-(4-Acetoxy-3-methoxystyryl)-1,3-diethyl-7-methylxanthine]",A2 Receptor Inhibition Rate (%),A2 Receptor; 10^-6 M,100%
same,A2 Receptor Inhibition Rate (%),A2 Receptor; 10^-7 M,91%
same,Total Score (catalepsy),[1]; [3],2
same,Number of Animals Showing Remission,[1]; [4],5
same,inhibition in vivo at 10 mg/kg,[1]; 5 mice,92%
same,Ratio of Attacks: Test Compd.-Treated Group/Control Group,[2]; 0.63 mg/kg,4.9
same,"Number of the Biting Attacks (mean ± S.E.M.), Test Compound-Treated Group",[2]; 0.63 mg/kg,19.1 ± 6.6
"CCCn1c(=O)c2c(nc(/C=C/c3ccc(OC(=O)c4ccccc4)c(OC)c3)n2C)n(CCC)c1=O [Compound 6, (E)-8-(4-Benzoyloxy-3-methoxystyryl)-7-methyl-1,3-dipropylxanthine]",A2 Receptor Inhibition Rate (%),A2 Receptor; 10^-6 M,96%
same,A2 Receptor Inhibition Rate (%),A2 Receptor; 10^-7 M,81%
same,Total Score (catalepsy),[1]; [3],9
same,Number of Animals Showing Remission,[1]; [4],5
same,inhibition in vivo at 10 mg/kg,[1]; 5 mice,64%
same,Ratio of Attacks: Test Compd.-Treated Group/Control Group,[2]; 10 mg/kg,16.0
same,"Number of the Biting Attacks (mean ± S.E.M.), Test Compound-Treated Group",[2]; 10 mg/kg,36.8 ± 10.8
"CCC(=O)Oc1ccc(/C=C/c2nc3c(c(=O)n(CC)c(=O)n3CC)n2C)cc1OC [Compound 12, (E)-1,3-Diethyl-8-(3-methoxy-4-propionyloxystyryl)-7-methylxanthine]",A2 Receptor Inhibition Rate (%),A2 Receptor; 10^-6 M,96%
same,A2 Receptor Inhibition Rate (%),A2 Receptor; 10^-7 M,86%
same,Total Score (catalepsy),[1]; 10 mice (max 50 points),10
same,Number of Animals Showing Remission,[1]; [5],10
same,inhibition in vivo at 10 mg/kg,[1]; 10 mice,80%
same,Ratio of Attacks: Test Compd.-Treated Group/Control Group,[2]; 2.5 mg/kg,20.3
same,"Number of the Biting Attacks (mean ± S.E.M.), Test Compound-Treated Group",[2]; 2.5 mg/kg,38.5 ± 8.4
"CCn1c(=O)c2c(nc(/C=C/c3ccc(OC(C)=O)cc3)n2C)n(CC)c1=O [Compound 14, (E)-8-(4-Acetoxystyryl)-1,3-diethyl-7-methylxanthine]",A2 Receptor Inhibition Rate (%),A2 Receptor; 10^-6 M,93%
same,A2 Receptor Inhibition Rate (%),A2 Receptor; 10^-7 M,86%
same,Total Score (catalepsy),[1]; 10 mice (max 50 points),11
same,Number of Animals Showing Remission,[1]; [5],10
same,inhibition in vivo at 10 mg/kg,[1]; 10 mice,78%
same,Ratio of Attacks: Test Compd.-Treated Group/Control Group,[2]; 0.63 mg/kg,4.1
same,"Number of the Biting Attacks (mean ± S.E.M.), Test Compound-Treated Group",[2]; 0.63 mg/kg,21.4 ± 7.4
